Data published in ChEMBL document CHEMBL4270597, “Donepezil-butylated hydroxytoluene (BHT) hybrids as Anti-Alzheimer's disease agents with cholinergic, antioxidant, and neuroprotective properties” (Eur J Med Chem, 2018).
Calls of active or inactive are those of the source. No cut-off for these calls is given here.

Experiments:
Acetylcholinesterase [1] = molecular target: Acetylcholinesterase (Electrophorus electricus, UniProt O42275); experiment: Inhibition of electric eel AChE using acetylthiocholine chloride as substrate incubated for 5 mins followed by substrate addition measured after 180 secs by Ellman's method
[2] = molecular target: Cholinesterase (Equus caballus) (UniProt P81908); experiment: Inhibition of equine serum BuChE at 100 uM using butyrylthiocholine iodide as substrate incubated for 5 mins followed by substrate addition measured after 180 secs by Ellman's method relative to control
Acetylcholinesterase [3] = molecular target: T1, Acetylcholinesterase (Homo sapiens, UniProt P22303); experiment: Inhibition of human erythrocyte AChE at 100 uM using acetylthiocholine chloride as substrate incubated for 5 mins followed by substrate addition measured after 180 secs by Ellman's method relative to control
Cholinesterase [4] = molecular target: T2, Cholinesterase (Homo sapiens, UniProt P06276); experiment: Inhibition of human serum BuChE at 100 uM using butyrylthiocholine iodide as substrate incubated for 5 mins followed by substrate addition measured after 180 secs by Ellman's method relative to control
[5] = molecular target: T3, Amine oxidase [flavin-containing] B (Homo sapiens, UniProt P27338); experiment: Inhibition of human MAO-B using p-tyramine as substrate incubated for 15 mins followed by substrate addition measured for 20 mins by fluorescence assay
T3 sequence (P27338 whole entry): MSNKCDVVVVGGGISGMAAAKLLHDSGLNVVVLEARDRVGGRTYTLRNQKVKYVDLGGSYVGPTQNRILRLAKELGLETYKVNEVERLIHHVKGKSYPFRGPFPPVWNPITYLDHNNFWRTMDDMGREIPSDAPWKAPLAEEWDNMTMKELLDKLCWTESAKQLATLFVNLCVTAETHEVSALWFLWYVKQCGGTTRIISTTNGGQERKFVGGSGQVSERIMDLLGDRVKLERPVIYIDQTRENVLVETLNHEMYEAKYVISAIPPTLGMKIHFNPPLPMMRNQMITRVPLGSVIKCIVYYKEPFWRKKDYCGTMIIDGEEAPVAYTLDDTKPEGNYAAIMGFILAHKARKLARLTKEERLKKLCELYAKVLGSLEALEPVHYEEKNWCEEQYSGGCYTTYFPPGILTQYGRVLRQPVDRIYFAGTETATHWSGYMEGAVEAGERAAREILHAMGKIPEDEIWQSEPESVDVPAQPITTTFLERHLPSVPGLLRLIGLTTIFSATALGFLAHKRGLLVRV

[6] = molecular target: T4, Amine oxidase [flavin-containing] A (Homo sapiens, UniProt P21397); experiment: Inhibition of human MAO-A at 100 uM using p-tyramine as substrate incubated for 15 mins followed by substrate addition measured for 20 mins by fluorescence assay relative to control
T4 sequence (P21397 whole entry): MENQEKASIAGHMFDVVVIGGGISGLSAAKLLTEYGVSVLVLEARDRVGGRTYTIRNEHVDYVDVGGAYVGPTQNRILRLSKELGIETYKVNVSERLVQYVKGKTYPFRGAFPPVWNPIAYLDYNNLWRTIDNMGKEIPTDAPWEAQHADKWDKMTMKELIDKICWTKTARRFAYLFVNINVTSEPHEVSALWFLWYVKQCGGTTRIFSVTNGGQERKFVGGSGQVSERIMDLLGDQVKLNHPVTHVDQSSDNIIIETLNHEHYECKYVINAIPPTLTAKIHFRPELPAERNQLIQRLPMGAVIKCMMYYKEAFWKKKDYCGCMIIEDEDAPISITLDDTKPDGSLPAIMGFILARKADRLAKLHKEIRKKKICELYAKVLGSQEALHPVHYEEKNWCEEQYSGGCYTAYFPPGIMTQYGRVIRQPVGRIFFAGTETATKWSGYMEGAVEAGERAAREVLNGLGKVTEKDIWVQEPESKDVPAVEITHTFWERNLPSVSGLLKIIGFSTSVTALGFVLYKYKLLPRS

[7] = Antioxidant activity assessed as DPPH radical scavenging activity at 100 uM measured after 30 mins incubation in dark by UV-Visible spectrophotometric analysis relative to control; format: functional
[8] = Antioxidant activity assessed as ABTS radical cation scavenging activity by measuring trolox equivalent antioxidant capacity measured at 6 mins; format: functional
[9] = Antioxidant activity assessed as trolox equivalent of AAPH-induced radical scavenging activity preincubated for 15 mins followed by AAPH addition measured every minute for 120 mins by ORAC-FL based fluorescein assay; format: functional
Cholinesterase [10] = molecular target: Cholinesterase (Equus caballus, UniProt P81908); experiment: Inhibition of equine serum BuChE using butyrylthiocholine iodide as substrate incubated for 5 mins followed by substrate addition measured after 180 secs by Ellman's method
Acetylcholinesterase [11] = molecular target: T1, Acetylcholinesterase; experiment: Inhibition of human erythrocyte AChE using acetylthiocholine chloride as substrate incubated for 5 mins followed by substrate addition measured after 180 secs by Ellman's method
Cholinesterase [12] = molecular target: T2, Cholinesterase; experiment: Inhibition of human serum BuChE using butyrylthiocholine iodide as substrate incubated for 5 mins followed by substrate addition measured after 180 secs by Ellman's method; details: read-out: IC50
Homo sapiens = species on record: Homo sapiens; experiment: Selectivity index, ratio of IC50 for human serum BuChE to IC50 for human erythrocyte AChE
[13] = molecular target: T4, Amine oxidase [flavin-containing] A; experiment: Inhibition of human MAO-A using p-tyramine as substrate incubated for 15 mins followed by substrate addition measured for 20 mins by fluorescence assay
PC-12 [14] = experiment: Cytotoxicity against rat PC12 cells assessed as decrease in cell viability at 20 uM after 24 hrs by MTT assay; format: cell-based; details: pc-12, 24 h
[15] = Antioxidant activity assessed as DPPH radical scavenging activity measured after 30 mins incubation in dark by UV-Visible spectrophotometric analysis; format: functional
PC-12 [16] = experiment: Cytotoxicity against rat PC12 cells assessed as decrease in cell viability at 30 uM after 24 hrs by MTT assay; format: cell-based; details: pc-12, 24 h
[17] = molecular target: Acetylcholinesterase (Electrophorus electricus) (UniProt O42275); experiment: Inhibition of electric eel AChE at 100 uM using acetylthiocholine chloride as substrate incubated for 5 mins followed by substrate addition measured after 180 secs by Ellman's method relative to control
[18] = molecular target: T3, Amine oxidase [flavin-containing] B; experiment: Inhibition of human MAO-B at 100 uM using p-tyramine as substrate incubated for 15 mins followed by substrate addition measured for 20 mins by fluorescence assay relative to control
Acetylcholinesterase [19] = molecular target: T1, Acetylcholinesterase; experiment: Mixed-type inhibition of human AChE using acetylthiocholine chloride as substrate incubated for 5 mins followed by substrate addition by Lineweaver-Burk plot analysis
PC-12 [20] = experiment: Neuroprotective activity against H2O2-induced oxidative stress in rat PC12 cells assessed as increase in cell viability pretreated for 4 hrs followed by H2O2 challenge measured after 24 hrs by MTT assay; format: functional, cell-based
[21] = molecular target: Amyloid-beta precursor protein (Homo sapiens) (UniProt P05067); experiment: Inhibition of AChE-induced amyloid beta 40 (unknown origin) aggregation at 100 uM by thioflavin-T fluorescence assay relative to control
[22] = molecular target: Amyloid-beta precursor protein (Homo sapiens) (UniProt P05067); experiment: Inhibition of self-induced amyloid beta 42 (unknown origin) aggregation at 20 uM incubated for 46 to 48 hrs by thioflavin-T fluorescence assay relative to control
[23] = Half life in Sprague-Dawley rat liver microsomes in presence of NADPH by UPLC/MS analysis
BV-2 = experiment: Antineuroinflammatory activity in mouse BV2 cells assessed as inhibition of LPS-induced NO production at 10 to 30 uM after 24 hrs by Griess assay; format: functional, cell-based
Mus musculus = experiment: Reversal of scopolamine-induced memory impairment in ICR mouse assessed as increase in step-through latency time at 5 mg/kg, po administered for 10 consecutive days and 60 mins prior to training trial followed by scopolamine challenge at 30 mins post dose measured 24 hrs after training trial by passive avoidance test; format: functional, organism-based

Sequence of Cholinesterase (Equus caballus) (P81908 whole entry): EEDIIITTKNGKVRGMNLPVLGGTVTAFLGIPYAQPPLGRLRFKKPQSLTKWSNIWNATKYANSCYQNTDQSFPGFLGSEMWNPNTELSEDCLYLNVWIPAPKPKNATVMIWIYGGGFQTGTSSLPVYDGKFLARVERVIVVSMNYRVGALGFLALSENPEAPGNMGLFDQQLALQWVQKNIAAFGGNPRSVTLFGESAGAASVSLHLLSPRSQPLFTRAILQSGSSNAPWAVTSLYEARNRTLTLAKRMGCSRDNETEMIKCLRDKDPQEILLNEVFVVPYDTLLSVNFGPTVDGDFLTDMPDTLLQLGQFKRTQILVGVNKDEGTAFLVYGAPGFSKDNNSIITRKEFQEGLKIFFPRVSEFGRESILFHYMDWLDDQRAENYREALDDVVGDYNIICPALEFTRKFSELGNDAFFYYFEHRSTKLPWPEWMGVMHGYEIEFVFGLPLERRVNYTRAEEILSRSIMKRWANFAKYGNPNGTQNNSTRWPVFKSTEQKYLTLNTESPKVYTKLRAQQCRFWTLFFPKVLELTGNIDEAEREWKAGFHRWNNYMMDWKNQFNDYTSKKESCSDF
Sequence of Cholinesterase (Equus caballus, UniProt P81908) (P81908 whole entry): as above
T1 sequence (P22303 whole entry): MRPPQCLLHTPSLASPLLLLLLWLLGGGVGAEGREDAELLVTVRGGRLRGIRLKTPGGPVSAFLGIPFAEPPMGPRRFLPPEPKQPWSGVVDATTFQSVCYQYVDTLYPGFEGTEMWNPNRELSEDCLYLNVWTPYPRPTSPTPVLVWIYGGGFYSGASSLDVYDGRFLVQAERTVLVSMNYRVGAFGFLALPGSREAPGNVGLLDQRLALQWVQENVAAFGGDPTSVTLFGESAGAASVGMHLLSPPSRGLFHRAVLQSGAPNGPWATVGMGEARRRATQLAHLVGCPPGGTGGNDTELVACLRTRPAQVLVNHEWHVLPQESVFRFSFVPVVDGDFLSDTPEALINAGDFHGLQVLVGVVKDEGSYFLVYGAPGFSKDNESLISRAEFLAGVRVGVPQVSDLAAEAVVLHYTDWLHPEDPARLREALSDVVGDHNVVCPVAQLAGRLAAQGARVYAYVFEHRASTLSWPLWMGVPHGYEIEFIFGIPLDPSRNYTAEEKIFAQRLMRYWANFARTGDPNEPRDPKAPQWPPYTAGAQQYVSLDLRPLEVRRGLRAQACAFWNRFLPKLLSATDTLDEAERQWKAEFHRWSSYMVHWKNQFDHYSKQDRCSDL
T2 sequence (P06276 whole entry): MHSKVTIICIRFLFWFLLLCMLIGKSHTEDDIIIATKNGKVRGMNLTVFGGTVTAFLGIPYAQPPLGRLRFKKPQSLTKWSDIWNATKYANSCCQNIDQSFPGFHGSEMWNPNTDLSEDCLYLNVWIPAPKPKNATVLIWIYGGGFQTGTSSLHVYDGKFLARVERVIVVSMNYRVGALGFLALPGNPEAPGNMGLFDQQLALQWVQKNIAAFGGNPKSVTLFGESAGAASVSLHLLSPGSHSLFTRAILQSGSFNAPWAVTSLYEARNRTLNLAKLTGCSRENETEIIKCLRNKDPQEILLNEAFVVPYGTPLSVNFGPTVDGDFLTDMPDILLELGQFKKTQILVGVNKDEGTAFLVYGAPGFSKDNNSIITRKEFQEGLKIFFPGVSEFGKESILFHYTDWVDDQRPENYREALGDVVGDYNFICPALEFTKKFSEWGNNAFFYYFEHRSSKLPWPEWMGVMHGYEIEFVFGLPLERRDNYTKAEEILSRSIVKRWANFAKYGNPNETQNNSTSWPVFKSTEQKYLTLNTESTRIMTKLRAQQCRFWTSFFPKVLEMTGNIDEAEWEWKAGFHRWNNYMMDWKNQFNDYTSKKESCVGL
Sequence of Acetylcholinesterase (Electrophorus electricus, UniProt O42275) (O42275 whole entry): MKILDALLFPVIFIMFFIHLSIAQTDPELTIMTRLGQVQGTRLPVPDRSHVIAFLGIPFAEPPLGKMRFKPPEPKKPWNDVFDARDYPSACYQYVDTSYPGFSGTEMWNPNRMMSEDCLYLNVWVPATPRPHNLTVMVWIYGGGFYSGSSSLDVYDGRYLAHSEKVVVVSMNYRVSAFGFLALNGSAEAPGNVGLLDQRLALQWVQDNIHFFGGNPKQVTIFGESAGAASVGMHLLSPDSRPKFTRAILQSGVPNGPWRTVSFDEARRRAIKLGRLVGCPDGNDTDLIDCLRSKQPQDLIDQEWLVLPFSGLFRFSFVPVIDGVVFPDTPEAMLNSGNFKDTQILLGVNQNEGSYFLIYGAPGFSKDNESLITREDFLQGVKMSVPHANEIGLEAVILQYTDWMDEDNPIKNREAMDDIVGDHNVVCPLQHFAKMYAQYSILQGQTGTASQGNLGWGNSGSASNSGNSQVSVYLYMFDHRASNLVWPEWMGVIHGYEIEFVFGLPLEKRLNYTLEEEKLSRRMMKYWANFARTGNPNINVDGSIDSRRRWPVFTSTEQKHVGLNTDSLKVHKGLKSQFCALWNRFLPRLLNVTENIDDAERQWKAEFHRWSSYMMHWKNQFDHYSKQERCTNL
Sequence of Acetylcholinesterase (Electrophorus electricus) (O42275 24-633 limits assumed): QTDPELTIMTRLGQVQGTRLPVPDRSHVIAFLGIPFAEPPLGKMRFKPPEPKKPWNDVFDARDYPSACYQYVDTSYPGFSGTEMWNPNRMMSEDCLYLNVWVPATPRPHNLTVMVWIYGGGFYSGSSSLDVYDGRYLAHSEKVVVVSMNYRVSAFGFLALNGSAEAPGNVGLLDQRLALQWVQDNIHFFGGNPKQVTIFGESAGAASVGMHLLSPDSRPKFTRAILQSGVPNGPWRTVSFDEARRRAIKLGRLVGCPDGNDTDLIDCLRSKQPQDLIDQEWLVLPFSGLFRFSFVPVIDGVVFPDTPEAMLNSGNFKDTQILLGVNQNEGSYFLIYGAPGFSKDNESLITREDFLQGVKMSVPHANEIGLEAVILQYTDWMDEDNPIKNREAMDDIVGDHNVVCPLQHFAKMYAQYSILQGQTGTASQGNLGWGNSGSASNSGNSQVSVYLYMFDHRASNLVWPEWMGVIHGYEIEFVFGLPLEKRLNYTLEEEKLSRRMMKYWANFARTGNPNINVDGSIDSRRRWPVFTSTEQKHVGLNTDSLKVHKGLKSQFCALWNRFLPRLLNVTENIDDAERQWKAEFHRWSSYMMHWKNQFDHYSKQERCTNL
Sequence of Amyloid-beta precursor protein (Homo sapiens) (P05067 whole entry): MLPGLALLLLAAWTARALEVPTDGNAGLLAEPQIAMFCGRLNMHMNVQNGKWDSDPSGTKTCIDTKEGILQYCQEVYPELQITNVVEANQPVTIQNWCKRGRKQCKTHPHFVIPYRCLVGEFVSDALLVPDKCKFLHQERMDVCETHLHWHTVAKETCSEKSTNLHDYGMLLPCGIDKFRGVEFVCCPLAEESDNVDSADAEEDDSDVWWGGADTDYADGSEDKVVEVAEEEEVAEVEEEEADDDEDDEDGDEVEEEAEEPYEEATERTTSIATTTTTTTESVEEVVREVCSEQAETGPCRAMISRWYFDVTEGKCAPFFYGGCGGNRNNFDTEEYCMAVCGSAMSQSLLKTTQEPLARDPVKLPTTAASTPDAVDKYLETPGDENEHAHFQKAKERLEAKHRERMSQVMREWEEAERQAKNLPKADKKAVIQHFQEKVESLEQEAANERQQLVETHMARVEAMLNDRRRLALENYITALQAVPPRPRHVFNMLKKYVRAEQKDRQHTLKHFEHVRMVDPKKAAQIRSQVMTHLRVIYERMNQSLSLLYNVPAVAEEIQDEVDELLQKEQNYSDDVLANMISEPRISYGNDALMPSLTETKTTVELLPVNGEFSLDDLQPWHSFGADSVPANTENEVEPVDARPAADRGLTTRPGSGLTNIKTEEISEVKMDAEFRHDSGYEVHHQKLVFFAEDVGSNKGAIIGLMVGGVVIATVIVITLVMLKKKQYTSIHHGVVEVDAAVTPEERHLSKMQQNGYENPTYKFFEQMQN

Compound	IC50 (Acetylcholinesterase [1]) [µM]	inhibition [2] [%]	inhibition (Acetylcholinesterase [3]) [%]	inhibition (Cholinesterase [4]) [%]	IC50 [5] [µM]	inhibition at 100 µM [6] [%]	Activity [7] [%]	Activity (mmolequiv/mmol) [8]	Activity (mmolequiv/mmol) [9]	IC50 (Cholinesterase [10]) [µM]	IC50 (Acetylcholinesterase [11]) [µM]	IC50 (Cholinesterase [12]) [µM]	Ratio IC50 (Homo sapiens)	IC50 [13] [µM]	Activity (PC-12 [14])	IC50 [15] [µM]	Activity (PC-12 [16])	other results
CC(C)(C)c1cc(C(=O)NC2CCN(Cc3ccccc3)CC2)cc(C(C)(C)C)c1O	55.6	34.6	20.1	19.6	85.1	49.2	47.4	0.74	1.53									
CC(C)(C)c1cc(C(=O)CNCCC2CCN(Cc3ccccc3)CC2)cc(C(C)(C)C)c1O	2.44				92.1		26.7	0.27	0.31	48.5	1.38	19.6	14	95.2				
O=C(/C=C/c1ccc(O)cc1)NCCC1CCN(Cc2ccccc2)CC1	0.81							0.55	1.81	1.26	2.51	1.22	0.49		Non-Toxic	72.1	Toxic	
CC(C)(C)c1cc(C(=O)NCC2CCN(Cc3ccccc3)CC2)cc(C(C)(C)C)c1O		8.61	15.7	23.1		15.8	48.2	0.65	1.47									inhibition [17]: 38.1%; inhibition at 100 µM [18]: 16.1%
CC(C)(C)c1cc(/C=C/C(=O)NCCC2CCN(Cc3ccccc3)CC2)cc(C(C)(C)C)c1O	0.53	48			8.5			0.91	1.52		2.23	84.8	38	62.3	Non-Toxic	81.7	Toxic	Ki (Acetylcholinesterase [19]): 3.2 µM; Activity (PC-12 [20]): Dose-dependent effect; inhibition [21]: 38.4%; inhibition [22]: 43.5 to 56.7%
O=C(/C=C/c1ccccc1)NCCC1CCN(Cc2ccccc2)CC1	0.55							0.31	0.72		0.45	1.67	3.7		Non-Toxic	> 200	Toxic	
CC(C)(C)c1cc(C(=O)CNCC2CCN(Cc3ccccc3)CC2)cc(C(C)(C)C)c1O	6.43						24.2	0.28	0.36	5.38	2.44	9.61	4	41.5				inhibition at 100 µM [18]: 42%
C[C@]12CC[C@H]3[C@@H](CCC4=CC(=O)CC[C@@]43C)[C@@H]1CC[C@@H]2O [TESTOSTERONE]																		half-life ([23]; liver microsomes): < 0.0833 h
COc1cc2c(cc1OC)C(=O)C(CC1CCN(Cc3ccccc3)CC1)C2 (stereo unspecified) [DONEPEZIL]																		inhibition (BV-2): inactive; half-life ([23]; microsomes): 1.21 h; Activity (Mus musculus): Active
CC(C)(C)c1cc(CCC(=O)NCC2CCN(Cc3ccccc3)CC2)cc(C(C)(C)C)c1O		14.6	12.6	14	89.1	38.4		0.63	0.97							63.4		inhibition [17]: 27.4%
